The source made the active and inactive calls. The rule behind the calls is not given here.
Experiments:
[1] = biological target: T1, Histone deacetylase 8 (Homo sapiens) (UniProt Q9BY41); test: Inhibition of recombinant human HDAC8 expressed in baculovirus expression system at 1 uM using fluorogenic Arg-His-Lys(Ac)-Lys(Ac) as substrate incubated for 90 mins by fluorescence assay
T1 sequence (whole entry): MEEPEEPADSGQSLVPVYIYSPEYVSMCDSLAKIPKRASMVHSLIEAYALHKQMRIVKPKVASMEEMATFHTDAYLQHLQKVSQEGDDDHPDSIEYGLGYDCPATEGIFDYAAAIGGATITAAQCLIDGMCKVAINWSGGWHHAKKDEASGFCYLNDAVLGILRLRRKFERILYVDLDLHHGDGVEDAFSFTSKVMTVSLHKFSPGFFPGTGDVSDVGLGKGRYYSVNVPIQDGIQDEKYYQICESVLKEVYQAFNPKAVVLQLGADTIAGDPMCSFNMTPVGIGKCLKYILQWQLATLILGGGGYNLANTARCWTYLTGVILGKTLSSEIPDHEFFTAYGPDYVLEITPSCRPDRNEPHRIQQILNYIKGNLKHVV

[2] = biological target: T2, Protein deacetylase HDAC6 (Homo sapiens, UniProt Q9UBN7)
T2 sequence (Q9UBN7 whole entry): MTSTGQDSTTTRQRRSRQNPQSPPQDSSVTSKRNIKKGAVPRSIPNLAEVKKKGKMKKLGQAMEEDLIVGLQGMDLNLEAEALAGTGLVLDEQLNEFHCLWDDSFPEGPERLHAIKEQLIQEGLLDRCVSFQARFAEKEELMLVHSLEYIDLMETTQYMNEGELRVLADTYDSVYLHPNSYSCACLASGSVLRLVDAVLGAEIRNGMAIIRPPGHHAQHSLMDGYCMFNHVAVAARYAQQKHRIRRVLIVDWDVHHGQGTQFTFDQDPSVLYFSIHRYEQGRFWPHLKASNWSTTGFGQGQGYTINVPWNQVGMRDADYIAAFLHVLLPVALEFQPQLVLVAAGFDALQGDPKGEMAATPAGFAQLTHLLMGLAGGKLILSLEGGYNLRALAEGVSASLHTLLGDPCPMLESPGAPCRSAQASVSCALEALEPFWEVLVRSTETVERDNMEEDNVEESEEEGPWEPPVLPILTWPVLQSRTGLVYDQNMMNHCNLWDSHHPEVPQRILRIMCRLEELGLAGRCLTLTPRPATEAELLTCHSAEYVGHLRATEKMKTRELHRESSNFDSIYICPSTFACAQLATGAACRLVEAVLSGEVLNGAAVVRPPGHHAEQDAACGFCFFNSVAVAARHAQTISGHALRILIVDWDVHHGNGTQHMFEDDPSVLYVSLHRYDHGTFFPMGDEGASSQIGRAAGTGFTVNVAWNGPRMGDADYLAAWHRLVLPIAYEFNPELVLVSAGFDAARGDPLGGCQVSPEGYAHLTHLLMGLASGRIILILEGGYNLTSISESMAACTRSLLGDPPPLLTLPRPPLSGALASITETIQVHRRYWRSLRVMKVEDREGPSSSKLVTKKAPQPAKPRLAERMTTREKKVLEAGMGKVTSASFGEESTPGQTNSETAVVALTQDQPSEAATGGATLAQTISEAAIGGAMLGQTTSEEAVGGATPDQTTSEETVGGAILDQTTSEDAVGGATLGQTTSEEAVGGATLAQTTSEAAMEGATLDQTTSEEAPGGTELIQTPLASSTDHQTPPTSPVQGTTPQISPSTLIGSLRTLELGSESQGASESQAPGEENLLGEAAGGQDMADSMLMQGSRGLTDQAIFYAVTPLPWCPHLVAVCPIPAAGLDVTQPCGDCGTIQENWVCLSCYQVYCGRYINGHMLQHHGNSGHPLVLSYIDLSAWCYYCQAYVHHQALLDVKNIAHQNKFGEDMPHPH

[3] = biological target: Histone deacetylase 1 (Homo sapiens, UniProt Q13547)
Histone deacetylase 1, sequence (Q13547 whole entry): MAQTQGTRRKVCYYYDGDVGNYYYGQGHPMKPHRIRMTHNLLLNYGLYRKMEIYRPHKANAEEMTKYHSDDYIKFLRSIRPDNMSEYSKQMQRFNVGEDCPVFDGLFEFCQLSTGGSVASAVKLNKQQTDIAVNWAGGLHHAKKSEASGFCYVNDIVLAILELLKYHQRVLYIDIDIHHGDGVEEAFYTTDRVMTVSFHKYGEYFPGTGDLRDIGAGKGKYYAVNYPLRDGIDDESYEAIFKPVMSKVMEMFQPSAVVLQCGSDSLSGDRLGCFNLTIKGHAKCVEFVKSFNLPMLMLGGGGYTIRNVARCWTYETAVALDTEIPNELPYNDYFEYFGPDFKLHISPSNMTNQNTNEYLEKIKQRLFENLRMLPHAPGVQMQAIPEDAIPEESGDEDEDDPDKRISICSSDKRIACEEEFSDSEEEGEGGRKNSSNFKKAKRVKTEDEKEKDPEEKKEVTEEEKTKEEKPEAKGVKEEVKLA

[4] = tested on: Huh-7; test: Antiproliferative activity against human HuH7 cells assessed as inhibition of cell proliferation at 10 to 100 uM after 72 hrs by CellTiter blue-reagent based assay; assay type: functional
[5] = tested on: T-24; test: Synergistic potentiation of Bortezomib-induced antiproliferative activity against human T24 cells assessed as effect on cell index, at 1 uM incubated for 24 hrs by cell impedance based assay; assay type: functional
[6] = tested on: T-24; test: Antiproliferative activity against human T24 cells assessed as inhibition of cell proliferation at 10 to 100 uM after 72 hrs by CellTiter blue-reagent based assay; assay type: functional
[7] = biological target: Histone deacetylase 4 (Homo sapiens) (UniProt P56524); test: Inhibition of recombinant N-terminal GST/His-tagged human HDAC4 (627 to 1084 residues) expressed in baculovirus expression system at 10 uM using fluorogenic ZMTFAL as substrate incubated for 90 mins by fluorescence assay relative to control
Histone deacetylase 4 (Homo sapiens), sequence (P56524 whole entry, the tested form may be a part): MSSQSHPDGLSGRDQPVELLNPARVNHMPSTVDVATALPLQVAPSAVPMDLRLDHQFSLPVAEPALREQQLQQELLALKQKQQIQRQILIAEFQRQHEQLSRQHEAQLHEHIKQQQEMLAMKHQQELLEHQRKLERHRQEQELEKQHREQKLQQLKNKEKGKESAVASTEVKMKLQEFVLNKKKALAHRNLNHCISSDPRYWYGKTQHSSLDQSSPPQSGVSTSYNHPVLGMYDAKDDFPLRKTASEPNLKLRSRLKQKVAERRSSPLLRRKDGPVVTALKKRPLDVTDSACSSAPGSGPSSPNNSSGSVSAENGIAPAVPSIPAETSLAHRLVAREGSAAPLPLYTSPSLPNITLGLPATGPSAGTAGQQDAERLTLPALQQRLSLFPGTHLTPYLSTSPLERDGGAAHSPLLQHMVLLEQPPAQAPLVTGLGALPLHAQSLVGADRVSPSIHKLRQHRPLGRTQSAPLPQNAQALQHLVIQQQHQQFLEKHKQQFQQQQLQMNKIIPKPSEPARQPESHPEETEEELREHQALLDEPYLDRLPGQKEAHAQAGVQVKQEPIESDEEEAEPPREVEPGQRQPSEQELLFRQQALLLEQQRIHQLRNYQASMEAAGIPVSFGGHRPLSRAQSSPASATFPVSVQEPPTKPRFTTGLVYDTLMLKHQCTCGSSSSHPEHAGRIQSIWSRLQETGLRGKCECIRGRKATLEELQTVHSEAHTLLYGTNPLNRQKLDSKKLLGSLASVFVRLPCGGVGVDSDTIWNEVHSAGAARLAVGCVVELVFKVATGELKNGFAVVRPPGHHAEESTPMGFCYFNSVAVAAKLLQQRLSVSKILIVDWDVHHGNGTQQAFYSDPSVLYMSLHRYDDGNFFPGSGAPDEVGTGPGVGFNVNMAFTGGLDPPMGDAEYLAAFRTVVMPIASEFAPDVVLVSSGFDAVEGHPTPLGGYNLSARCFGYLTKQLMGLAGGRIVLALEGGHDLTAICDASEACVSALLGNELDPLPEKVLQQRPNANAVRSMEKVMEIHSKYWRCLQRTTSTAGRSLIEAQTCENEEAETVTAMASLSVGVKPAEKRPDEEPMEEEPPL

[8] = (§1) Cytotoxicity against human HepaRG cells assessed as cell viability at 100 uM after 24 hrs by CellTiter blue-reagent based assay relative to control; conditions: HepaRG cells, read-out: Activity
[9] = biological target: T3, Histone deacetylase 8 (Homo sapiens, UniProt Q9BY41)
T3 sequence (Q9BY41 whole entry): T1 sequence (whole entry)

[10] = tested on: MDA-MB-231; test: Antiproliferative activity against human MDA-MB-231 cells assessed as inhibition of cell proliferation at 10 to 100 uM after 72 hrs by CellTiter blue-reagent based assay; assay type: functional
[11] = tested on: MDA-MB-231; test: Induction of apoptosis in human MDA-MB-231 cells at 1 to 10 uM after 48 hrs by propidium iodide-staining based FACS analysis; assay type: functional, cell-based
[12] = tested on: T-24; test: Induction of apoptosis in human T24 cells at 1 to 10 uM after 48 hrs by propidium iodide-staining based FACS analysis; assay type: functional, cell-based
[13] = tested on: HL-60; test: Antiproliferative activity against human HL60 cells after 72 hrs by CellTiter blue-reagent based assay; assay type: functional, cell-based
[14] = tested on: MCF7; test: Antiproliferative activity against human MCF7 cells after 72 hrs by CellTiter blue-reagent based assay; assay type: functional, cell-based
[15] = tested on: THP-1; test: Antiproliferative activity against human THP1 cells after 72 hrs by CellTiter blue-reagent based assay; assay type: functional, cell-based
[16] = Half life in human liver microsomes at 2 uM by LC-MS/MS analysis; assay type: ADME, Microsome
[17] = Intrinsic clearance in human liver microsomes at 2 uM by LC-MS/MS analysis; assay type: ADME, Microsome
[18] = Drug level in human liver microsomes treated with 2 uM 4-[(10H-Phenothiazin-10-yl)methyl]-N-hydroxybenzamide assessed as compound formation after 40 mins by LC-MS/MS analysis; assay type: ADME, Microsome
[19] = biological target: CYP2C19 (Homo sapiens, UniProt P33261); test: Inhibition of human CYP2C19 in human liver microsomes at 10 uM relative to control; assay type: ADME
CYP2C19, sequence (P33261 whole entry): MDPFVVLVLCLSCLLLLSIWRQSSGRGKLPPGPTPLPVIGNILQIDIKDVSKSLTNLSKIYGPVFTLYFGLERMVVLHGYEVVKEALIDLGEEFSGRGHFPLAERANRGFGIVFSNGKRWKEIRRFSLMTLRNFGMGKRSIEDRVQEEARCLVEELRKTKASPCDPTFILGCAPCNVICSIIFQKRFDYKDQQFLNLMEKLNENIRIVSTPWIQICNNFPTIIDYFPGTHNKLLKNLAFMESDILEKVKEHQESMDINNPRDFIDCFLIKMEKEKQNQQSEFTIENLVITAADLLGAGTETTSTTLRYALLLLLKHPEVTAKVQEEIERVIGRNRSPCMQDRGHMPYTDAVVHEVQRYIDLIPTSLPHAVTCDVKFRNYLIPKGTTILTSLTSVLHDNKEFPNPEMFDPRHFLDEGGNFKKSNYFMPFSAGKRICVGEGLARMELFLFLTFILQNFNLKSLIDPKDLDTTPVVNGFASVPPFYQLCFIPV

[20] = biological target: CYP2D6 (Homo sapiens, UniProt P10635); test: Inhibition of human CYP2D6 in human liver microsomes at 10 uM relative to control; assay type: ADME
CYP2D6, sequence (P10635 whole entry): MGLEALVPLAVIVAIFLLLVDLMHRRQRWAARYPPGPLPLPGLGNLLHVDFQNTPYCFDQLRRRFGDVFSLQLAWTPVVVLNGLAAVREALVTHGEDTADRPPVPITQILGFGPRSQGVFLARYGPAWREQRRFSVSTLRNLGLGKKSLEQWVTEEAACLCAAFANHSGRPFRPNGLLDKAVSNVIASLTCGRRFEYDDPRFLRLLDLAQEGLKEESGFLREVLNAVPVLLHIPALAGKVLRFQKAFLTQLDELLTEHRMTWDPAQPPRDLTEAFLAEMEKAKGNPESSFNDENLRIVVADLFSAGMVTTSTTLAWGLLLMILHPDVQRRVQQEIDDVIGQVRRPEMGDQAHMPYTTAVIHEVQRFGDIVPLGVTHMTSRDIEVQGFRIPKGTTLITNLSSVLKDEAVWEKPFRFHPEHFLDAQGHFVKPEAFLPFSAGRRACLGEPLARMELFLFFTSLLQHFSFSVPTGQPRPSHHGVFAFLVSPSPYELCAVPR

[21] = biological target: CYP3A4 (Homo sapiens, UniProt P08684); test: Inhibition of human CYP3A4 in human liver microsomes at 10 uM relative to control; assay type: ADME
CYP3A4, sequence (P08684 whole entry): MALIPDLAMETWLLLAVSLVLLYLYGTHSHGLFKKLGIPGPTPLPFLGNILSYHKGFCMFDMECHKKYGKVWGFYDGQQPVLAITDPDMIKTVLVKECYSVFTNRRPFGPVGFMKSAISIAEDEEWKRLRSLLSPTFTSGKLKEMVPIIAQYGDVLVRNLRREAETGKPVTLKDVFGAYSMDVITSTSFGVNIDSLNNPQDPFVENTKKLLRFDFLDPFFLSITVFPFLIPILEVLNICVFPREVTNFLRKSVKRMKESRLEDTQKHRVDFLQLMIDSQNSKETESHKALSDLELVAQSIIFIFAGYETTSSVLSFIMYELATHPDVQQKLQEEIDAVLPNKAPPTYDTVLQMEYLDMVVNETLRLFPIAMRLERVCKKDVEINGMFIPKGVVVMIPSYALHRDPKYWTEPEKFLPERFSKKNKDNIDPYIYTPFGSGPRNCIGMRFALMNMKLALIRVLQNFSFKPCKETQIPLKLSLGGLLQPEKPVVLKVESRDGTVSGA

[22] = Drug metabolism in human liver microsomes assessed as N-Hydroxy-4-[(5-oxido-10H-Phenothiazin-10-yl)methyl]-benzamide formation at 2 uM after 40 mins by LC-MS/MS analysis; assay type: ADME, Microsome
[23] = tested on: HepaRG; test: as §1; conditions: heparg, 24 h, 100 µM
[24] = Drug metabolism in human liver microsomes assessed as 4-[(5,5-Dioxido-10H-phenothiazin-10-yl)methyl]-N-hydroxybenzamide formation at 2 uM after 40 mins by LC-MS/MS analysis; assay type: ADME, Microsome
[25] = Stability in human liver microsomes assessed as compound remaining at 2 uM after 40 mins by LC-MS/MS analysis; assay type: ADME, Microsome; conditions: read-out: Stability
[26] = biological target: T4, CYP1A2 (Homo sapiens, UniProt P05177); test: Inhibition of human CYP1A2 in human liver microsomes at 10 uM relative to control; assay type: ADME
T4 sequence (P05177 whole entry): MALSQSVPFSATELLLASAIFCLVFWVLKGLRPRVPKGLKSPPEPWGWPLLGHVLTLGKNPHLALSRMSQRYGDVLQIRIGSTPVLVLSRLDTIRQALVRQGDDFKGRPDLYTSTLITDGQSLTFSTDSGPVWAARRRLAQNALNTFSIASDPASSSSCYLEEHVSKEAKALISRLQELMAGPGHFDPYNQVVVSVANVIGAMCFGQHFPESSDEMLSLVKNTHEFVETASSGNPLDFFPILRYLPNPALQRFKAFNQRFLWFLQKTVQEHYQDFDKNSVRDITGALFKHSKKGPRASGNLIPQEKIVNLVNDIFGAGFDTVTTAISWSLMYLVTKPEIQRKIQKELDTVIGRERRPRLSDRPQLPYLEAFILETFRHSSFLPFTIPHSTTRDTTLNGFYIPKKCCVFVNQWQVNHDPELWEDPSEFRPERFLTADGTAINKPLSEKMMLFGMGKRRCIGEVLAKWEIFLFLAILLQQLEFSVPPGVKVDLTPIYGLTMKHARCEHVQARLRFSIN

[27] = biological target: CYP2C9 (Homo sapiens, UniProt P11712); test: Inhibition of human CYP2C9 in human liver microsomes at 10 uM relative to control; assay type: ADME
CYP2C9, sequence (P11712 whole entry): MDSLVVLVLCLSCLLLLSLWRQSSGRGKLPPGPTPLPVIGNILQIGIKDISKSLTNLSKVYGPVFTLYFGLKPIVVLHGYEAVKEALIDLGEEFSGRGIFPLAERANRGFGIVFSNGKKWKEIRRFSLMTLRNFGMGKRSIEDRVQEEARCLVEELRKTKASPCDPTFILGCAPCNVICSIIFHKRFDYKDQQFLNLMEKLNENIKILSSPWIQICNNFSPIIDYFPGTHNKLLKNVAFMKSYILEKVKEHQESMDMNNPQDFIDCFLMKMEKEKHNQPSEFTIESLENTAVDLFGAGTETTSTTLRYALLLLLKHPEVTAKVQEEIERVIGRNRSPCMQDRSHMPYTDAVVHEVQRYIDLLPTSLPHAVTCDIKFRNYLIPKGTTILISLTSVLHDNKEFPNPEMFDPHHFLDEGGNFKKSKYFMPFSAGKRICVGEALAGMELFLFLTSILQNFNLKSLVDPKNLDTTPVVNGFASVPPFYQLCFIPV

CN1CCC2=C(C1)N(Cc1ccc(C(=O)NO)cc1)c1ccccc1S2
inhibition [1]: 66% | IC50 [2]: 32 nM | IC50 [3]: 980 nM

Cc1nc2c(s1)Sc1ccccc1N2Cc1ccc(C(=O)NO)cc1
IC50 [2]: 37 nM

O=C(NO)c1ccc(CN2c3ccccc3Sc3cc(Cl)nnc32)cc1
IC50 [2]: 18 nM

O=C(NO)c1ccc(CN2c3ccncc3Sc3ncccc32)cc1
inhibition [4]: Active | IC50 [2]: 12 nM | Activity [5]: inactive | inhibition [6]: Active | inhibition [7]: < 20% | viability at 24 h, 100 µM [8]: 80% | IC50 [9]: 2000 nM | inhibition [10]: Active | IC50 [3]: 3340 nM

O=C(NO)c1ccc(CN2N=C(Cl)C=C3Sc4ccccc4N=C32)cc1
IC50 [2]: 115 nM

O=C(NO)c1ccc(N2c3ccccc3Sc3ccccc32)cc1
IC50 [2]: 2670 nM

O=C(CCCCCCC(=O)Nc1ccccc1)NO
Activity [11]: Active | Activity [12]: Active | Activity [13]: Active | Activity [14]: Active | Activity [15]: Active

O=C(NO)c1ccc(CCN2c3ccccc3Sc3ccccc32)cc1
IC50 [2]: 136 nM

O=C(NO)c1ccc(CN2c3ccccc3Sc3cccc(Cl)c32)cc1
IC50 [2]: 16 nM | IC50 [3]: 5760 nM

O=C(NO)c1ccc(CN2c3ccccc3Sc3ccc(Cl)cc32)cc1
IC50 [2]: 12 nM | IC50 [3]: 2950 nM

Cn1c(=O)c2c(ncn2C)n(C)c1=O [CAFFEINE]
t1/2 [16]: 6.22 h | CLH [17]: 4 µL/min/mg

O=C(NO)c1ccc(CN2N=CC=C3Sc4ccccc4N=C32)cc1
IC50 [2]: 19 nM

O=C(NO)c1ccc(CN2c3ccccc3[S+]([O-])c3ccccc32)cc1
IC50 [2]: 77 nM | Drug uptake [18]: Active | IC50 [3]: 6810 nM

O=C(CCCCCCC(=O)Nc1ccc([C@H]2O[C@@H](CSc3nc(-c4ccccc4)c(-c4ccccc4)o3)C[C@@H](c3ccc(CO)cc3)O2)cc1)NO [TUBACIN]
IC50 [3]: 1010 nM

O=C(NO)c1ccc(CN2c3ccccc3Sc3ccc(C(F)(F)F)cc32)cc1
IC50 [2]: 25 nM | IC50 [3]: 7490 nM

O=C(NO)c1ccc(CN2c3ccncc3Sc3ccncc32)cc1
IC50 [2]: 9 nM

O=C(NO)c1ccc(CN2c3ccccc3S(=O)(=O)c3ccccc32)cc1
Drug uptake [18]: Active | IC50 [3]: 3990 nM

O=C(NO)c1ccc(CN2c3ccccc3Sc3ccccc32)cc1
inhibition at 10 µM [19]: 36.4% | t1/2 [16]: 1.95 h | inhibition at 10 µM [20]: 45.4% | Activity [5]: inactive | inhibition at 10 µM [21]: 24.3% | Drug metabolism [22]: Metabolite_Detected | inhibition [7]: < 20% | CLH [17]: 14 µL/min/mg | Activity [23]: Non-Toxic | IC50 [9]: 1480 nM | Drug metabolism [24]: Metabolite_Detected | remaining at 40 min, 2 µM [25]: 77% | inhibition at 10 µM [26]: 20% | inhibition at 10 µM [27]: 24.4% | IC50 [3]: 5080 nM

COc1ccc2c(c1)N(Cc1ccc(C(=O)NO)cc1)c1ccccc1S2
IC50 [2]: 10 nM | IC50 [3]: 2070 nM

CCSc1ccc2c(c1)N(Cc1ccc(C(=O)NO)cc1)c1ccccc1S2
IC50 [2]: 31 nM | IC50 [3]: 7200 nM

O=C(NO)c1ccc(CN2c3cccnc3Sc3cccnc32)cc1
IC50 [2]: 14 nM

O=C(NO)c1ccc(CN2c3ccccc3Sc3nccnc32)cc1
IC50 [2]: 17 nM

O=C(NO)c1ccc(CN2c3ccccc3Sc3ccncc32)cc1
IC50 [2]: 7 nM

O=C(NO)c1ccc(CN2c3ccccc3Sc3ccnnc32)cc1
IC50 [2]: 11 nM

Reference: ChEMBL document CHEMBL4368915, “Synthesis and Biological Investigation of Phenothiazine-Based Benzhydroxamic Acids as Selective Histone Deacetylase 6 Inhibitors” (J Med Chem, 2019)
